Data reported in patent US20250136568A1, “FUSED HETEROCYCLIC COMPOUNDS AS PI3KALPHA INHIBITORS” (Nanjing Zenshine Pharmaceuticals Co., Ltd., priority 2021, published 2025).
Where two headings read alike, the source gives them in different places.

Tests used:
Type in all cases: cell-based
[1] = tested on: PI3Kα H1047R mutation cell line MDA-MB-453; test: Cell Proliferation IC50 Assay (CellTiter-Glo), MDA-MB-453; conditions: MDA-MB-453 (H1047R), 72 hours, CellTiter-Glo, read-out: IC50 (μM) MDA-MB-453
Excerpt: PI3Kα H1047R mutation cell line T-47D and MDA-MB-453, E545K mutation cell line MDA-MB-361 and PI3Kα wide type cell line SK-BR-3 were purchased from Cobioer Biotech (cat. no CBP60397, CBP60386, CBP60383 and CBP60413 respectively). The CellTiter-Glo Direct Cell Proliferation Assay Kit was purchased from Prornega (cat. No. G7573)
For cell proliferation assay in each cell line: • a. Prepare complete medium (R PMI 1640, DMEM or McCoys): Add FBS and appropriate additives according to the information sheet provided by the vendor. Mix gently. • b. Prepare single cell suspension and count the cell numbers and adjust cells to appropriate density. • c. Add 80 μL of cell suspension to 96-well opaque-walled clear bottom plates according to the planned plate layout and place the plates in the CO2 incubator overnight. • d. Prepare intermediate plate: 10 μl of diluted test compounds or staurosporine solution (200×) is added to a 96 deep well plate. Then 390 μl of culture medium without FBS is added to the respective wells. • e. Transfer 20 μL of the solutions from the above intermediate plate to the wells of the plate prepared containing 80 μL of the culture medium and cells. The total dilution is 200 folds. • f. The cells were then incubated at 5% CO2, 37° C. for 72 hours. • g. Equilibrate the plate and its contents to room temperature for approximately 30 minutes. • h. Add 100 μL of CellTiter-Glo reagent to the assay plate • i. Mix contents for 10 minutes on an orbital shaker to induce cell lysis. • j. Allow the plate to incubate at room temperature for 10 minutes to stabilize luminescent signal, • k. Paste the clear bottom with white back seal and record luminescence with Varioskan LUX plate reader.
Inhibition % and IC50 value were calculated by the formula described below: […]

[2] = tested on: PI3Kα wide type cell line SK-BR-3; test: Cell Proliferation IC50 Assay (CellTiter-Glo), SK-BR-3; conditions: SK-BR-3 (PI3Kα wild type), 72 hours, CellTiter-Glo, read-out: IC50 (μM) SK-BR-3
Method in brief: (§1)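 Read-out was CellTiter-Glo luminescence after 72 h of compound exposure at 37 °C, 5% CO2. Cells had been plated overnight in complete medium before the compound was added at a 200-fold final dilution. IC50 was derived from percent inhibition.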

[3] = tested on: PI3Kα H1047R mutation cell line T-47D; test: Cell Proliferation IC50 Assay (CellTiter-Glo), T-47D; conditions: T47D (H1047R), 72 hours, CellTiter-Glo, read-out: IC50 (μM) T47D
Method in brief: as §1

Structure (SMILES)	IC50 ([1]; Homo sapiens) [µM]	IC50 ([2]; Homo sapiens) [µM]	IC50 ([3]; Homo sapiens, T47D, 72 h) [µM]	IC50 [1] [µM]	IC50 [2] [µM]	IC50 [3] [µM]
Cc1cc([C@H](C)Nc2ccccc2C(=O)O)c2oc(-c3ccc4c(c3)CN(C)C4=O)c(C)c(=O)c2c1 (single isomer, unassigned) [Example 20A]	> 10	> 10	> 10			
Cc1cc([C@@H](C)Nc2ccccc2C(=O)O)c2oc(-c3ccc4c(c3)CN(C)C4=O)c(C)c(=O)c2c1 (single isomer, unassigned) [Example 20B]	0.07	> 10	0.048			
Cc1cc([C@@H](C)Nc2ccccc2C(=O)O)c2oc(-c3ccc(N4CCOCC4)cc3)c(C)c(=O)c2c1 (single isomer, unassigned) [Example 53A]	0.12	> 10	0.09			
C[C@H](Nc1ccccc1C(=O)O)c1cc(Cl)cc2c(=O)cc(-c3ccc4nn(C)cc4c3)oc12 (single isomer, unassigned) [Example 98A]				0.09	> 10	0.038
CC(=O)N1CCN(c2ccc(-c3oc4c([C@H](C)Nc5ccccc5C(=O)O)cc(C)cc4c(=O)c3C)cc2)CC1 (single isomer, unassigned) [Example 123B]	> 10	> 10	> 10			
Cc1cc(C(C)Nc2ccccc2C(=O)O)c2oc(-c3ccccc3)cc(=O)c2c1 (stereo not shown) [Example 1, 2-((1-(6-methyl-4-oxo-2-phenyl-4H-chromen-8-yl)ethyl)amino)benzoic acid]	0.7	> 10	0.33			
Cc1ccc(-c2cc(=O)c3cc(C)cc(C(C)Nc4ccccc4C(=O)O)c3o2)cc1 (stereo not shown) [Example 2, 2-((1-(6-methyl-4-oxo-2-(p-tolyl)-4H-chromen-8-yl)ethyl)amino)benzoic acid]	0.39	> 10	0.16			
Cc1cc(C(C)Nc2ccccc2C(=O)O)c2oc(-c3ccc(Cl)cc3)cc(=O)c2c1 (stereo not shown) [Example 3, 2-((1-(2-(4-chlorophenyl)-6-methyl-4-oxo-4H-chromen-8-yl)ethyl)amino)benzoic acid]	0.56	> 10	0.75			
Cc1cc(C(C)Nc2ccccc2C(=O)O)c2oc(-c3ccc4c(c3)OCO4)cc(=O)c2c1 (stereo not shown) [Example 4, 2-((1-(2-(benzo[d][1,3]dioxol-5-yl)-6-methyl-4-oxo-4H-chromen-8-yl)ethyl)amino)benzoic acid]	0.75	> 10	0.56			
Cc1cc(C(C)Nc2ccccc2C(=O)O)c2oc(-c3ccc4c(c3)CN(C)C4=O)cc(=O)c2c1 (stereo not shown) [Example 6, 2-((1-(6-methyl-2-(2-methyl-1-oxoisoindolin-5-yl)-4-oxo-4H-chromen-8-yl)ethyl)amino)benzoic acid]	0.29	> 10	0.23			
Cc1cc(C(C)Nc2ccccc2C(=O)O)c2oc(-c3cnn(C)c3)cc(=O)c2c1 (stereo not shown) [Example 10, 2-((1-(6-methyl-2-(1-methyl-1H-pyrazol-4-yl)-4-oxo-4H-chromen-8-yl)ethyl)amino)benzoic acid]	2.44	> 10	0.86			
Cc1cc(C(C)Nc2ccccc2C(=O)O)c2oc(-c3cnn(CC(C)(C)O)c3)cc(=O)c2c1 (stereo not shown) [Example 11, 2-((1-(2-(1-(2-hydroxy-2-methylpropyl)-1H-pyrazol-4-yl)-6-methyl-4-oxo-4H-chromen-8-yl)ethyl)amino)benzoic acid]	2.49	> 10	1.98			
Cc1cc([C@@H](C)Nc2ccccc2C(=O)O)c2oc(-c3ccnc(N4CCOCC4)c3)c(C)c(=O)c2c1 [Example 133, (R)-2-((1-(3,6-dimethyl-2-(2-morpholinopyridin-4-yl)-4-oxo-411-chromen-8-yl)ethyl)amino)benzoic acid]	1.18	> 10				
Cc1cc([C@@H](C)Nc2ccccc2C(=O)O)c2oc(-c3ccnc(C(=O)N(C)C)c3)c(C)c(=O)c2c1 [Example 134, (R)-2-((1-(2-(2-(dimethylcarbamoyl)pyridin-4-yl)-3,6-dimethyl-4-oxo-4H-chromen-8-yl)ethyl)amino)benzoic acid]	0.56	> 10				
